{"source": "patent US10927398B2", "about": "“Compositions for CYP450 phenotyping using saliva samples” (Concordia University, Inc., priority 2015, dated 2021)", "key": {"[1]": {"test_system": "CYP2C19"}, "[2]": {"test_system": "CYP2C19", "conditions": "saliva, repeat doses of Formulation #4, per subject and tablet #"}, "[3]": {"conditions": "without an enteric coating or base protection; cited from earlier work"}, "[4]": {"conditions": "Table of Exemplary Drugs, CYP2C19; cited from earlier work"}, "[5]": {"test_system": "plasma protein", "conditions": "Table of Exemplary Drugs, CYP2C19; cited from earlier work"}, "[6]": {"conditions": "Table of Exemplary Drugs, CYP2C19; cited from earlier work", "remark": "listed apart in the source"}, "[7]": {"conditions": "saliva, healthy adults, omeprazole 20 mg"}}, "note": "“And” between values parts separate entries of the source, which are not always exact repeats. Equal entries are not always repeated. Where two headings read alike, the source gives them in different places."}
{"molecule": "COc1ccc2[nH]c([S+]([O-])Cc3ncc(C)c(OC)c3C)nc2c1", "note": "(stereo not drawn) [Omeprazole]", "values": [{"measurement": "concentrations in saliva", "setting": "[1]; over the counter formulations, some individuals", "result": "found in low concentrations in saliva of some individuals"}, {"measurement": "CYP2C19 metabolic phenotype: Extensive", "setting": "[1]; [7]", "result": 49.4, "unit": "%"}, {"measurement": "CYP2C19 metabolic phenotype: Intermediate", "setting": "[1]; [7]", "result": 31.3, "unit": "%"}, {"measurement": "CYP2C19 metabolic phenotype: Poor", "setting": "[1]; [7]", "result": 7.2, "unit": "%"}, {"measurement": "CYP2C19 metabolic phenotype: Rapid", "setting": "[1]; [7]", "result": 9.6, "unit": "%"}, {"measurement": "CYP2C19 metabolic phenotype: Ultra-rapid", "setting": "[1]; [7]", "result": 2.4, "unit": "%"}, {"measurement": "Log10 Omeprazole/5-Hydroxy Omeprazole Metabolic Ratio", "setting": "[2]; time point 0.5 h", "result": "0.9 and 2.3 (2×) and 1.4 and 2.4 and 3.5 and 3.1"}, {"measurement": "Log10 Omeprazole/5-Hydroxy Omeprazole Metabolic Ratio", "setting": "[2]; time point 1 h", "result": "1.2 (2×) and 0.7 (2×) and 1.5 and 1.1 and 1.3 and 1.9 and 1.4"}, {"measurement": "Log10 Omeprazole/5-Hydroxy Omeprazole Metabolic Ratio", "setting": "[2]; time point 2 h", "result": "0.6 (2×) and 0.5 and 1.3 (2×) and 0.9 and 0.8 and 1.1 and 1.0 and 1.2 and 0.4 and 2.0"}, {"measurement": "Log10 Omeprazole/5-Hydroxy Omeprazole Metabolic Ratio", "setting": "[2]; time point 3 h", "result": "0.4 (2×) and 0.7 and 0.9 (2×) and 0.8 and 0.6 (2×) and 1.3 (2×) and 0.05 and 0.2 and 1.6 and 1.0"}, {"measurement": "Log10 Omeprazole/5-Hydroxy Omeprazole Metabolic Ratio", "setting": "[2]; time point 4 h", "result": "0.4 (2×) and 1.2 and 1.0 and 0.6 (3×) and 0.7 and 0.9 and 0.03 and 1.3"}, {"measurement": "stability in acidic gastric fluids", "setting": "[3]", "result": "rapidly degrades"}, {"measurement": "ORAL BIOAVAILABILITY", "setting": "[4]", "result": "30-40%"}, {"measurement": "PLASMA PROTEIN BINDING", "setting": "[5]", "result": "95-96% ^"}, {"measurement": "HALF-LIFE", "setting": "[6]", "result": "30 to 60", "unit": "min"}]}
